Measurements as given in patent US20020086278A1, “CHROMOGENIC MEDIA CONTAINING BLOOD OR HEMIN” (priority 1999, published 2002).
Like-named read-outs stand apart in the source and are kept apart here.

Columns and labels:
55 strains = test: Example 3: color, hemolytic activity and growth over all 55 strains; type: cell-based; details: Gram-positives
Text: Steers, E. et al., Antibiot.

[1] = system: E. coli (non-O157) (esco); type: cell-based; details: for Colony Color (Summary): chromogenic TSA II with 5% Sheep Blood, 0.1 g/l, 3 strains tested
[2] = system: Pseudomonas aeruginosa (psae); test: Example 3: colony color on chromogenic TSA II with 5% sheep blood (chromogen in medium); type: cell-based; details: for Colony Color (Summary): chromogenic TSA II with 5% Sheep Blood, 0.1 g/l, 3 strains tested; for Colony Color: CO2
S. pneumoniae 6303 = test: Example 2: effect of incubation conditions on colony color formation; type: cell-based, Streptococcus pneumoniae; details: TSA II 5% Sheep Blood, 0.004 g/plate; 24 h, CO2
S. pneumoniae (stpn) = test: Example 3: colony color on chromogenic TSA II with 5% sheep blood (chromogen in medium); type: cell-based; details: for Colony Color (Summary): chromogenic TSA II with 5% Sheep Blood, 0.1 g/l, 6 strains tested; for Colony Color on Various Chromogenic TSA II with 5% Sheep Blood: 18 h
C. perfringens 13124 = type: cell-based, Clostridium perfringens; details: TSA II 5% Sheep Blood, 0.004 g/plate; 5 d, ANA
[3] = system: Group D Strep / Enterococcus; test: Example 3: colony color on chromogenic TSA II with 5% sheep blood (chromogen in medium); details: 7 of 7 strains
S. agalactiae BD11586 = test: Example 2: effect of incubation conditions on colony color formation; type: cell-based, Streptococcus agalactiae; details: Chocolate II Agar, 0.004 g/plate; 24 h, CO2
Strep Grp G 12394 = test: as above; type: cell-based, Streptococcus group G; details: 0.004 g/plate, 24 h, CO2
S. agalactiae 4768 = test: as above; type: cell-based, Streptococcus agalactiae; details: 0.004 g/plate, 24 h, CO2
Strep Grp G 27961 = test: as above; type: cell-based, Streptococcus group G; details: 0.004 g/plate, 24 h, CO2
S. agalactiae BD747 = test: as above; type: cell-based, Streptococcus agalactiae; details: 0.004 g/plate, 24 h, CO2
Strep Grp C 12388 = test: as above; type: cell-based, Streptococcus group C; details: 0.004 g/plate, 24 h, CO2
S. agalactiae 13813 = test: as above; type: cell-based, Streptococcus agalactiae; details: 0.004 g/plate, 24 h, CO2
S. agalactiae 6638 = test: as above; type: cell-based, Streptococcus agalactiae; details: 0.004 g/plate, 24 h, CO2

| SMILES | Colony Color (Summary) [1] | Colony Color ([1]; esco 33605, CO2, 21 h) | Colony Color (Summary) [2] | Colony Color ([2]; psae 9027, 21 h) | Colony Color ([2]; psae 15442, 21 h) | Colony Color ([2]; psae 33607, 21 h) | Colony Color (Summary) (S. pneumoniae (stpn)) | Colony Color (S. pneumoniae (stpn); stpn 1259, CO2, 21 h) | Colony Color (S. pneumoniae (stpn); stpn 1260, CO2, 21 h) | Colony Color (S. pneumoniae (stpn); stpn 1628, CO2, 21 h) | Colony Color (S. pneumoniae (stpn); stpn 6303, CO2, 24 h) | Colony Color (S. pneumoniae (stpn); stpn 6303, air, 24 h) | Colony Color (S. pneumoniae (stpn); stpn 6305, CO2, 24 h) | Colony Color (S. pneumoniae (stpn); stpn 6305, air, 24 h) | Colony Color ([2]; psae 9027, 18 h) | Colony Color ([2]; psae 15442, 18 h) | Colony Color ([2]; psae 33607, 18 h) | Colony Color on Various Chromogenic TSA II with 5% Sheep Blood (S. pneumoniae (stpn); stpn t259, CO2) | Colony Color on Various Chromogenic TSA II with 5% Sheep Blood (S. pneumoniae (stpn); stpn t260, CO2) | Colony Color on Various Chromogenic TSA II with 5% Sheep Blood (S. pneumoniae (stpn); stpn t331, CO2) | also measured |
| --- | --- | --- | --- | --- | --- | --- | --- | --- | --- | --- | --- | --- | --- | --- | --- | --- | --- | --- | --- | --- | --- |
| OC[C@H]1O[C@@H](Oc2c[nH]c3ccc(Br)c(Cl)c23)[C@H](O)[C@@H](O)[C@H]1O [X-Gal, 5-Br-4-Cl-3-indolyl-β-D-galactopyranoside] | + | gb | 0 | 0 | 0 | 0 | 0 | 0 | 0 | 0 | 0 | 0 | 0 | 0 | – | – | – | – | – | – | Usefulness for Gram-positives (55 strains): not particularly useful; Colony Color (S. pneumoniae 6303): blue (l); Colony Color (C. perfringens 13124): blue (m) |
| OC[C@H]1O[C@@H](Oc2c[nH]c3ccc(Br)c(Cl)c23)[C@H](O)[C@@H](O)[C@@H]1O [X-Glucoside, 5-Br-4-Cl-3-indolyl-β-D-glucopyranoside] | 0 | 0 | – | 0 | 0 | lgb | – | 0 | 0 | 0 | 0 | 0 | 0 | 0 | 0 | 0 | 0 | 0 | 0 | 0 | Colony Color ([1]; esco 11775, CO2, 18 h): 0; Colony Color ([1]; esco 11775, CO2, 21 h): 0; Colony Color ([1]; esco 25922, CO2, 24 h): 0; Colony Color ([1]; esco 25922, air, 24 h): 0; Colony Color ([1]; esco 33605, CO2, 18 h): 0; Colony Color on Various Chromogenic TSA II with 5% Sheep Blood (S. pneumoniae (stpn); stpn t628, CO2): bg; Colony Color [3]: blue |
| O=C(O)[C@H]1O[C@@H](Oc2c[nH]c3ccc(Br)c(Cl)c23)[C@H](O)[C@@H](O)[C@@H]1O [X-Glucuro, X-Glucuronide] | + | – | 0 | – | – | – | 0 | – | – | – | – | – | – | – | 0 | 0 | 0 | 0 | 0 | 0 | Colony Color (S. agalactiae BD11586): blue (vl); Colony Color (Strep Grp G 12394; Chocolate II Agar): blue (d); Colony Color (Strep Grp G 12394; TSA II 5% Sheep Blood): grey blue; Colony Color (S. agalactiae 4768; Chocolate II Agar): blue (l); Colony Color (S. agalactiae 4768; TSA II 5% Sheep Blood): blue (l); Colony Color (Strep Grp G 27961; Chocolate II Agar): blue (d); Colony Color (Strep Grp G 27961; TSA II 5% Sheep Blood): blue (d); Colony Color on Various Chromogenic TSA II with 5% Sheep Blood (S. pneumoniae (stpn); stpn t628, CO2): 0; Colony Color (S. agalactiae BD747; Chocolate II Agar): blue (l); Colony Color (S. agalactiae BD747; TSA II 5% Sheep Blood): grey blue; Colony Color (Strep Grp C 12388; Chocolate II Agar): blue (d); Colony Color (Strep Grp C 12388; TSA II 5% Sheep Blood): blue (d); Colony Color (S. agalactiae 13813; Chocolate II Agar): blue (d); Colony Color (S. agalactiae 13813; TSA II 5% Sheep Blood): blue (d); Colony Color (S. agalactiae 6638; Chocolate II Agar): blue (m); Colony Color (S. agalactiae 6638; TSA II 5% Sheep Blood): blue (m) |
